The source of these data is patent US9580390B2, “Indazole compounds as kinase inhibitors and method of treating cancer with same” (University Health Network, priority 2011, dated 2017).

Like-named read-outs stand apart in the source and are kept apart here.

One test addresses T1, human TTK (Homo sapiens, UniProt P33981).
T1 construct: amino terminal GST fusion of full length human TTK; purchased Invitrogen
T1 sequence (P33981 1-857): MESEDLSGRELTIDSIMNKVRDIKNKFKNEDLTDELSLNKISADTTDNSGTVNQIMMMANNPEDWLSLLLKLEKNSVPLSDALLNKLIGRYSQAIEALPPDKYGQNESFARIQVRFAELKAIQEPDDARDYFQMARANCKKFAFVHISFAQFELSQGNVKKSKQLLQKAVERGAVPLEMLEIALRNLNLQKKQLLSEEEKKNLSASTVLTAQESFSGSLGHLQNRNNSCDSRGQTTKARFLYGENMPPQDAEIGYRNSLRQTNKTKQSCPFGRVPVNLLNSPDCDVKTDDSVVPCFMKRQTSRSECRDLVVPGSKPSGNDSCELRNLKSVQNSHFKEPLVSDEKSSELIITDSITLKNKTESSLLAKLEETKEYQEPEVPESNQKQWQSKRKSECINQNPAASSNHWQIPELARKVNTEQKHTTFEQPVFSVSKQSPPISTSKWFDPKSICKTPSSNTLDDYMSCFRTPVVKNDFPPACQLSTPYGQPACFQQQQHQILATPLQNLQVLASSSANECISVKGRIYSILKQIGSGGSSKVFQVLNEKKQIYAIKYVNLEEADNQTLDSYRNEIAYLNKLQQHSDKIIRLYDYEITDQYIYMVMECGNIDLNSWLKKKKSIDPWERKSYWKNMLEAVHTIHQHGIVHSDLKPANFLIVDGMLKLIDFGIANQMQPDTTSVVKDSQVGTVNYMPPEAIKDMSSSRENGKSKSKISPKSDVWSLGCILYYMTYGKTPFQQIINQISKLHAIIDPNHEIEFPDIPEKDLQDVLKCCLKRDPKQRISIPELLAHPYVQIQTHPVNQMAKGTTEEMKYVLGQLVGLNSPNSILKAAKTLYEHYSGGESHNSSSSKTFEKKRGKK
Description: TTK inhibition assay (indirect ELISA). The following applies: read-out: TTK IC50 Range. It is filed as biochemical. On the technique in general: An ELISA detects its analyte on a solid surface through an enzyme-linked reagent.

In test [1] the test system is colon cancer cells (HCT116). Kind of test: Cancer cell line growth inhibition (SRB assay). The following applies: Homo sapiens, HCT-116, read-out: Cancer Cell Line GI50 Range HCT116. In kind it is cell-based.
Test [2] has as its system ovarian cancer cells (PA-1). Description: Cancer cell line growth inhibition (SRB assay). In kind it is cell-based. Particulars: read-out: Cancer Cell Line GI50 Range PA-1. (Sulforhodamine B stains cellular protein and so reports cell mass.)
For the next test, the system named is Breast cancer cells. Kind of test: Cancer cell line growth inhibition (SRB assay). In kind it is cell-based. Particulars: Homo sapiens; MDA-MB-468; read-out: Cancer Cell Line GI50 Range MDA-MB-468.
The next test has as its target T2, human PLK4 (Homo sapiens, UniProt O00444).
T2 construct: amino terminal GST fusion of residues 1-391 of human PLK4; made in house; host or cells: E. coli
T2 sequence (O00444 1-391): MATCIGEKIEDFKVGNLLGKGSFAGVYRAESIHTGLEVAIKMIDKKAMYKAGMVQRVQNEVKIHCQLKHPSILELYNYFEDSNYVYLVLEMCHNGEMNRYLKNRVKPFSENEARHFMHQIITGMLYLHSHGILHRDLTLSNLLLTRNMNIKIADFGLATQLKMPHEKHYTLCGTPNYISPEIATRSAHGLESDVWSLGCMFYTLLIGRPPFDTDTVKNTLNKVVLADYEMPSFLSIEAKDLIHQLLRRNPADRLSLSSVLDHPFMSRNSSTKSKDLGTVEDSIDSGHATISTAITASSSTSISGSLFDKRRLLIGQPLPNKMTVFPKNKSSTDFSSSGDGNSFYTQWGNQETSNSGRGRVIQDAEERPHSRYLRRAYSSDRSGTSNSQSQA
Description: PLK4 inhibition assay (indirect ELISA). It is filed as biochemical. Particulars: 15 μM ATP. As for the experimental part:
Active PLK4 was purified from an E. coli expression system as an amino terminal GST fusion of residues 1-391 of human PLK4. The protein was purified from clarified cell extracts after induction at 15° C. overnight using glutathione sepharose, gel permeation chromatography, and ion exchange (Resource Q). The resulting protein was dephosphorylated with lambda phosphatase (NEB cat# P0753), and resolved from the phosphatase using gluthione sepharose. The dephosphorylated GST-PLK4 was stored in aliquots at −80° C. until use.
PLK4 activity was measured using an indirect ELISA detection system. Dephosphorylated GST-PLK4 (4 nM) was incubated in the presence of 15 μM ATP (Sigma cat# A7699), 50 mM HEPES-[…] pH 7.4, 10 mM MgCl2, 0.01% Brij 35 (Sigma cat# 03-3170), in a 96 well microtitre plate pre-coated with MBP (Millipore cat#30-011). The reaction was allowed to proceed for 30 minutes, followed by 5 washes of the plate with Wash Buffer (50 mM TRIS-Cl pH 7.4 and 0.2% Tween 20), and incubation for 30 minutes with a 1:3000 dilution of primary antibody (Cell Signaling cat# 9381). The plate was washed 5 times with Wash Buffer, incubated for 30 minutes in the presence of secondary antibody coupled to horse radish peroxidase (BioRad cat# 1721019, 1:3000 concentration), washed an additional 5 times with Wash Buffer, and incubated in the presence of TMB substrate (Sigma cat# T0440). The colourimetric reaction was allowed to continue for 5 minutes, followed by addition of stop solution (0.5 N sulphuric acid), and quantified by detection at 450 nm with either a monochromatic or filter based plate reader (Molecular Devices M5 or Beckman DTX880, respectively).
Compound inhibition was determined at either a fixed concentration (10 μM) or at a variable inhibitor concentration (typically 50 μM to 0.1 μM in a 10 point dose response titration). Compounds were pre-incubated in the presence of enzyme for 15 minutes prior to addition of ATP and the activity remaining quantified using the above described activity assay. The % Inhibition of a compound was determined using the following formula: % Inhibition=100×(1−(experimental value−background value)/(high activity control−background value)). The IC50 value was determined using a non-linear 4 point logistic curve fit (XLfit4, IDBS) with the formula: (A+(B/(1+((x/C)^D)))), where A=background value, B=range, C=inflection point, D=curve fit parameter.

Setting [3] is: HCT116 colon cancer cells, SRB assay.
Where [4] appears, read: PA-1 ovarian cancer cells, SRB assay.

As for `C[C@@H](O)CN1CCC(Oc2ccc(-c3n[nH]c4ccc(C(=O)N[C@H](c5ccsc5)C5CC5)cc34)cc2)CC1` [Example A220, N-((S)-cyclopropyl(thiophen-3-yl)methyl)-3-(4-((1-((R)-2-hydroxypropyl)piperidin-4-yl)oxy)phenyl)-1H-indazole-5-carboxamide], the IC50 at human TTK was < 100 nM; at human PLK4, < 50 nM. In addition, the GI50 in test [1] was 100 to 500 nM; in test [2] (Homo sapiens, PA-1), < 100 nM; in the test with Breast cancer cells, 100 to 500 nM.

In the case of `CC(C)[C@H](NC(=O)c1ccc2[nH]nc(-c3ccc(OC4CN(C5COC5)C4)cc3)c2c1)c1ccccc1Cl` [Example A296, (S)-N-(1-(2-chlorophenyl)-2-methylpropyl)-3-(4-((1-(oxetan-3-yl)azetidin-3-yl)oxy)phenyl)-1H-indazole-5-carboxamide], the IC50 on human TTK is < 100 nM; on human PLK4, < 50 nM. Also, the GI50 in test [1] was < 100 nM; in test [2] (Homo sapiens, PA-1), < 100 nM.

For `CC(C)C[C@H](NC(=O)c1ccc2[nH]nc(-c3ccc(N4CCN(C5COC5)CC4)cc3)c2c1)c1ccccn1` [Example A359, (S)-N-(3-methyl-1-(pyridin-2-yl)butyl)-3-(4-(4-(oxetan-3-yl)piperazin-1-yl)phenyl)-1H-indazole-5-carboxamide], the IC50 is < 100 nM on human TTK and < 50 nM on human PLK4. Moreover, the GI50 in test [1] was < 100 nM; in test [2] (Homo sapiens, PA-1), < 100 nM; in the test on Breast cancer cells, < 100 nM.

Consider `O=C(NC(c1ccccc1Cl)C1CCC1)c1ccc2[nH]nc(-c3ccc(N4CCN(C5COC5)CC4)cc3)c2c1` (centres unmarked) [Example A297, N-((2-chlorophenyl)(cyclobutyl)methyl)-3-(4-(4-(oxetan-3-yl)piperazin-1-yl)phenyl)-1H-indazole-5-carboxamide], for which the IC50 at human TTK is < 100 nM; at human PLK4, < 50 nM. For the same molecule, the GI50 was < 100 nM in test [1]; < 100 nM in test [2] (Homo sapiens, PA-1); < 100 nM with Breast cancer cells.

Turning to `CC(C)CC(NC(=O)c1ccc2[nH]nc(-c3ccc(OC4CN(C5COC5)C4)cc3)c2c1)c1ccccc1Cl` (centres unmarked) [Example A357, N-(1-(2-chlorophenyl)-3-methylbutyl)-3-(4-((1-(oxetan-3-yl)azetidin-3-yl)oxy)phenyl)-1H-indazole-5-carboxamide], the IC50 on human TTK is < 100 nM; on human PLK4, < 50 nM. The GI50 is 100 to 500 nM in test [1]; 100 to 500 nM in test [2] (Homo sapiens, PA-1); 100 to 500 nM with Breast cancer cells.

Consider `CCC(CNC(=O)c1ccc2[nH]nc(-c3ccc(OC4CCN(C)CC4)cc3)c2c1)c1ccccc1` (centres unmarked) [Example A408, 3-(4-((1-methylpiperidin-4-yl)oxy)phenyl)-N-(2-phenylbutyl)-1H-indazole-5-carboxamide], for which the IC50 on human TTK is < 100 nM; at human PLK4, < 50 nM.

In the case of `O=C(NC(c1ccsc1)C1CCC1)c1ccc2[nH]nc(-c3ccc(OC4CCN(C5COC5)CC4)cc3)c2c1` (centres unmarked) [Example A331, N-(cyclobutyl(thiophen-3-yl)methyl)-3-(4-((1-(oxetan-3-yl)piperidin-4-yl)oxy)phenyl)-1H-indazole-5-carboxamide], the IC50 is < 100 nM on human TTK and < 50 nM on human PLK4. Further, the GI50 in test [1] is < 100 nM; in test [2] (Homo sapiens, PA-1), < 100 nM.

In the case of `CC(C)(C)C[C@H](NC(=O)c1ccc2[nH]nc(-c3ccc(N4C5COCC4CC(O)C5)cc3)c2c1)c1ccccc1` (stereo partly drawn) [Example A426, N-((S)-3,3-dimethyl-1-phenylbutyl)-3-(4-((1R,5S,7R)-7-hydroxy-3-oxa-9-azabicyclo[3.3.1]nonan-9-yl)phenyl)-1H-indazole-5-carboxamide], the figures for the IC50 on human TTK and at human PLK4 were < 100 nM and < 50 nM, respectively.

Turning to `CN1CCC(Oc2ccc(-c3n[nH]c4ccc(NC(=O)C(c5ccccc5)C5CCCC5)cc34)cc2)CC1` (centres unmarked) [Example A148, 2-cyclopentyl-N-(3-(4-((1-methylpiperidin-4-yl)oxy)phenyl)-1H-indazol-5-yl)-2-phenylacetamide], the GI50 in test [1] (setting [3]) and in test [2] (setting [4]) was 100 to 500 nM in each case. In addition, the IC50 at human PLK4 was < 50 nM.

On to `CN1CCC(C(NC(=O)c2ccc3[nH]nc(-c4ccc(N5CCOCC5)cc4)c3c2)c2ccccc2)CC1` (centres unmarked) [Example A85, N-((1-methylpiperidin-4-yl)(phenyl)methyl)-3-(4-morpholinophenyl)-1H-indazole-5-carboxamide], for which the GI50 in test [1] (setting [3]) and in test [2] (setting [4]) was < 100 nM each time. The IC50 on human PLK4 is < 50 nM.

Consider `CC(C)(C)CC(NC(=O)c1ccc2[nH]nc(-c3ccc(N4CCN(C5COC5)CC4)cc3)c2c1)c1ccccc1F` (centres unmarked) [Example A308, N-(1-(2-fluorophenyl)-3,3-dimethylbutyl)-3-(4-(4-(oxetan-3-yl)piperazin-1-yl)phenyl)-1H-indazole-5-carboxamide], for which the results for the IC50 on human TTK and on human PLK4 were < 100 nM and < 50 nM, respectively.

As for `O=C(NC(c1ccsc1)C1CC1)c1ccc2[nH]nc(-c3ccc(OC4CCN(CCO)CC4)cc3)c2c1` (centres unmarked) [Example A117, N-(cyclopropyl(thiophen-3-yl)methyl)-3-(4-((1-(2-hydroxyethyl)piperidin-4-yl)oxy)phenyl)-1H-indazole-5-carboxamide], the GI50 in test [1] (setting [3]) and in test [2] (setting [4]) was < 100 nM throughout. Moreover, the IC50 at human PLK4 was < 50 nM.

Consider `O=C(N[C@H](c1ccccc1)C1CC1)c1ccc2[nH]nc(-c3ccc(OC4CC5CCC(C4)N5C4COC4)cc3)c2c1` (stereo partly drawn) [Example A336, N-((S)-cyclopropyl(phenyl)methyl)-3-(4-(((1R,3R,5S)-8-(oxetan-3-yl)-8-azabicyclo[3.2.1]octan-3-yl)oxy)phenyl)-1H-indazole-5-carboxamide], for which the IC50 at human TTK was < 100 nM; at human PLK4, < 50 nM. The GI50 lay within 100 to 500 nM in test [1] and 100 to 500 nM in test [2] (Homo sapiens, PA-1).

Consider `Cc1ccccc1CC(=O)Nc1ccc2[nH]nc(-c3ccc(OC4CCN(C)CC4)cc3)c2c1` [Example A92, N-(3-(4-(1-Methylpiperidin-4-yloxy)phenyl)-1H-indazol-5-yl)-2-o-tolylacetamide], for which the GI50 in test [1] (setting [3]) was < 100 nM; in test [2] (setting [4]) it was 100 to 500 nM. In addition, the IC50 at human PLK4 was < 50 nM.

The term IC50 denotes the concentration that gives 50% inhibition. In general, GI50 refers to the concentration giving 50% growth inhibition.
